# Experimental data published in patent US20090048301A1 (IMCLONE SYSTEMS INCORPORATED, priority 2003, published 2009).
# System: bovine tubulin
# Experiment: In vitro tubulin polymerization assay (turbidity at 340 nm)
# Type: biochemical
# Conditions: 10 μM compound, 30 minute data point, vs 1% DMSO control
# Protocol: Briefly, tubulin polymerization is a kinetic process that is temperature-dependent and requires GTP and was performed as follows. Soluble tubulin dimers polymerize into microtubules upon warming, and polymerization in vitro correlates with an increase in turbidity (measured at 340 nm). Lyophilized bovine tubulin (HTS Tubulin—97% tubulin, <3% MAPs—Cytoskeleton Inc.) was ressuspended in G-PEM buffer (80 mM PIPES pH 7, 1 mM EGTA, 1 mM MgCl2, 1 mM GTP, 5% glycerol) to a final concentration of 3 mg/ml and kept at 4° C. Compounds in 100× stock solutions in DMSO were dotted to pre-warmed 96-well plates (Corning Costar 3696), the plates were transferred to a 37° C. plate reader (SPECTRAmax Plus, Molecular Devices), cold tubulin was added to the wells, and the plates were shaken for mixing. The absorbance at 340 nm was determined at one minute intervals for 30 minutes. Kinetic curves with 30 points each were collected for each compound, and the dynamic range was between 0 and 0.4 OD units. The percentage inhibition values were calculated using the 30 minute data point and based on control samples (treated with 1% DMSO only). The assay is a modified version of the HTS kit sold by Cytoskeleton (1830 S. Acoma St., Denver, Colo.), adapted to maximize throughput and reduce time, without reduction in dynamic range or sensitivity, while retaining the ability to detect compounds that inhibit or enhance tubulin polymerization.
# Tubulin polymerization is a kinetic process that is temperature-dependent and requires GTP. Soluble tubulin dimers polymerize into microtubules upon warming, and polymerization in vitro correlates with an increase in turbidity (measured at 340 nm). Liophilized bovine tubulin (HTS Tubulin—97% tubulin, <3% MAPs—Cytoskeleton Inc.) was ressuspended in G-PEM buffer (80 mM PIPES pH 7, 1 mM EGTA, 1 mM MgCl2, 1 mM GTP, 5% glycerol) to a final concentration of 3 mg/ml and kept at 4° C. Compounds in 100× stock solutions in DMSO were dotted to pre-warmed 96-well plates (Corning Costar 3696), the plates were immediately transferred to a 37° C. plate reader (SPECTRAmax Plus, Molecular Devices), cold tubulin was added to the wells, plates were shaken for mixing, and absorbance at 340 nm was read every minute for 30 minutes. Kinetic curves with 30 points each were collected for each compound, and the dynamic range was between 0 and 0.4 OD units. Percentage inhibition values were calculated using the 30 minute data point, based on control samples (treated with 1% DMSO only). This assay is a modified version of the HTS kit sold by Cytoskeleton, adapted to maximize throughput and reduce time, without reduction in dynamic range or sensitivity, while retaining the ability to detect compounds that inhibit or enhance tubulin polymerization.
row,Compound,Tubulin Assay: percent inhibition at 10 μM based on 30 minute data [%]
1,"COc1cccc(Nc2nc(-c3cccnc3Nc3cc(OC)cc(OC)c3)nn2C)c1 [Compound 66, (3,5-Dimethoxy-phenyl)-{3-[5-(3-methoxy-phenylamino)-1-methyl-1H-[1,2,4]triazol-3-yl]-pyridin-2-yl}-amine]",73
2,"COc1cc(Nc2ncccc2-c2nc(Nc3ccc4c(c3)OCCO4)n(C)n2)cc(OC)c1 [Compound 67, {3-[5-(2,3-Dihydro-benzo[1,4]dioxin-6-ylamino)-1-methyl-1H-[1,2,4]triazol-3-yl]-pyridin-2-yl}-(3,5-dimethoxy-phenyl)-amine]",76
3,"Cn1nc(-c2cccnc2NCc2ccncc2)nc1Nc1ccc2c(c1)OCCO2 [Compound 68, {3-[5-(2,3-Dihydro-benzo[1,4]dioxin-6-ylamino)-1-methyl-1H-[1,2,4]triazol-3-yl]-pyridin-2-yl}-pyridin-4-ylmethyl-amine]",58
4,"COc1cccc(Nc2nc(-c3cccnc3NCc3ccncc3)nn2C)c1 [Compound 69, {3-[5-(3-Methoxy-phenylamino)-1-methyl-1H-[1,2,4]triazol-3-yl]-pyridin-2-yl}-pyridin-4-ylmethyl-amine]",29
5,"Cn1nc(-c2cccnc2NCc2ccncc2)nc1Nc1ccc2c(c1)OCO2 [Compound 70, {3-[5-(Benzo[1,3]dioxol-5-ylamino)-1-methyl-1H-[1,2,4]triazol-3-yl]-pyridin-2-yl}-pyridin-4-ylmethyl-amine]",32
6,"FC(F)(F)c1cccc(-c2nnc(-c3cccnc3NCc3ccncc3)[nH]2)c1 [Compound 76, Pyridin-4-ylmethyl-{3-[5-(3-trifluoromethyl-phenyl)-4H-[1,2,4]thiazol-3-yl]-pyridin-2-yl}-amine]",21
7,"Fc1ccc(-c2nnc(-c3cccnc3NCc3ccc4c(c3)OCO4)[nH]2)cc1Cl [Compound 81, Benzo[1,3]dioxol-5-ylmethyl-{3-[5-(3-chloro-4-fluoro-phenyl)-4H-[1,2,4]triazol-3-yl]-pyridin-2-yl}-amine]",20
8,"FC(F)(F)c1cccc(-c2nnc(-c3cccnc3NCc3ccc4c(c3)OCO4)[nH]2)c1 [Compound 83, Benzo[1,3]dioxol-5-ylmethyl-{3-[5-(3-trifluoromethyl-phenyl)-4H-[1,2,4]triazol-3-yl]-pyridin-2-yl}-amine]",25
9,"COc1cccc(-c2nnc(-c3cccnc3NCCc3c[nH]cn3)[nH]2)c1 [Compound 90, [2-(1H-Imidazol-4-yl)-ethyl]-{3-[5-(3-methoxy-phenyl)-4H-[1,2,4]triazol-3-yl]-pyridin-2-yl}-amine]",25
10,"CS(=O)(=O)c1ccc(-c2nnc(-c3cccnc3NCCc3c[nH]cn3)[nH]2)cc1 [Compound 91, [2-(1H-Imidazol-4-yl)-ethyl]-{3-[5-(4-methanesulfonyl-phenyl)-4H-[1,2,4]triazol-3-yl]-pyridin-2-yl}-amine]",29
11,"COc1cc(Nc2ncccc2-c2nnc(-c3ccc4c(c3)OCO4)[nH]2)cc(OC)c1 [Compound 93, [3-(5-Benzo[1,3]dioxol-5-yl-4H-[1,2,4]triazol-3-yl)-pyridin-2-yl]-(3,5-dimethoxy-phenyl)-amine]",28
12,"COc1cccc(-c2nnc(-c3cccnc3NCc3ccncc3)[nH]2)c1 [Compound 94, {3-[5-(3-Methoxy-phenyl)-4H-[1,2,4]triazol-3-yl]-pyridin-2-yl}-pyridin-4-ylmethyl-amine]",43
13,"COc1cccc(-c2nnc(-c3cccnc3NCc3ccco3)[nH]2)c1 [Compound 95, Furan-2-ylmethyl-{3-[5-(3-methoxy-phenyl)-4H-[1,2,4]triazol-3-yl]-pyridin-2-yl}-amine]",41
